Measured values published in patent publication US9365534B2, “Arylated camphenes, processes for their preparation and uses thereof” (Yissum Research Development Company of the Hebrew …, priority 2009, dated 2016).

Experiments:
human CB1 receptor = human CB1 receptor (Homo sapiens (Human), UniProt P21554); test: cell-based; conditions: whole cells expressing CB1, 50 μM forskolin; read-out: cAMP Assay CB1 Receptor IC50
Source text: (§1) The cDNA clones for human HA-tagged CB1 and CB2 receptors were obtained from the Missouri S&T cDNA Resource Center (www.cdna.org) in cloning vector pcDNA3.1+. The vector containing the human CB2 receptor was transfected directly into CHO-KI cells obtained from ATCC. The HA-tagged human CB1 receptor sequence was subcloned into the pef4-V5-HisA vector with Kpn1 and Pme1 restriction enzymes and subsequently transfected into CHO-K1 cells. Cells were clonally isolated by limited dilution and screened by immunocytochemistry for expression of the HA tag.
(§2) Cells were maintained in DMEM/F12 media supplemented with 10% fetal bovine serum (FBS), 100 units/ml penicillin and 100 μg/ml streptomycin and 2 mM L-glutamine. Transfected cell lines were maintained with additional 150 ug/ml zeocin for pEF HA-CB1 transfected cells and 500 ug/ml G-418 for pcDNA HA-CB2 transfected cells (all reagents obtained from Invitrogen).
(§3) Cells were seeded at a density of 10,000 cells per well in poly-L-lysine treated 96-well culture plates (BD Biosciences). The following day wells were incubated with 40 μl DMEM/F12 containing 0.5% (w/v) BSA and 0.5 mM 3-isobutyl-1-methylxanthine (Sigma-Aldrich) for 30 minutes prior to 15 min stimulation with 50 μM forskolin (Tocris Cookson) and varying concentrations of indicated compounds at 37° C., 5% CO2. Assays were stopped by removal of media and addition of 100% ice cold ethanol. Plates were then frozen for a minimum of two hours before complete evaporation of ethanol. The well contents were then reconstituted in 50 μl cAMP assay buffer (20 mM HEPES pH 7.5 and 5 mM EDTA). Half of the reconstituted sample was transferred to round bottom 96-well plates (Greiner Bio-One GmbH) with 50 μl 0.01% w/v PKA (cAMP dependent protein kinase (Sigma-Aldrich) in 1 mM Na citrate pH 6.5 with 2 mM dithiothreitol) and 25 μl [^3H]-cAMP (at 22 nM in cAMP assay buffer) (GE Healthcare, Life Sciences). This was allowed to equilibrate for 3-18 hours. Following this a charcoal slurry (5% (w/v) activated charcoal and 0.2% (w/v) BSA in cAMP assay buffer) was added to the samples and the plates centrifuged at 3000×g, 4° C. for 5 min. Radioactive counts within the supernatant were then determined as described for competition binding assays.
(§4) pIC50 values were determined from cAMP assays by fitting a sigmoidal concentration response curve using Prism 4.02.

human CB2 receptor = human CB2 receptor (Homo sapiens (Human), UniProt P34972); test: cell-based; conditions: for Emax: CHO, read-out: cAMP Assay CB2 Receptor Emax; for IC50: read-out: cAMP Assay CB2 Receptor IC50
Source text: as §1, §2, §3, §4

closed head injury (CHI) = test: Closed head injury (CHI) model, neurological severity score, Sabra mice; format: in vivo; conditions: for most effective dose (recovery, ΔNSS): Sabra mice, i.p. 1 h after CHI, followed 21 days
Description: The study was conducted according to the guidelines of the Institutional Animal Care Committee of the Hebrew University. Male Sabra mice weighing 35 to 50 g were used in all experiments. Animals were kept under controlled light conditions with a 12 h/12 h light/dark cycle. Experimental closed head injury (CHI) was induced using a modified weight drop device developed in our laboratory as described previously (Chen et al., 1996). At 1 h after CHI, the functional status of the mice was evaluated according to a set of 10 neurobehavioral tasks, namely the neurological severity score (NSS). This score is based on the ability of the mice to perform 10 different tasks (Beni-Adani et al., 2001) that evaluate their motor ability, balance, and alertness. One point is given for failing to perform a task. […] A score of 10 reflects maximal neurologic impairment, and a decrease of NSS during the recovery period indicates partial recovery of function.
Data was analyzed using the Prism 4.02 programme (GraphPad Software, San Deigo, Calif., USA). The data are expressed as mean±SEM and statistical significance was assessed with one way analysis of variance (ANOVA) followed by a Dunnett's post-hoc analysis for TNF-α levels. Nonparametric NSS values were compared between the two groups at each time point.
In this study four groups of mice were subjected to CHI (n=10/group and control n=9), after which the following agents were administered: • Group 1 (Control): Vehicle only (ethanol:cremophor:saline at ratio of 1:1:18), 1 h after CHI. • Group 2: HU-910, 0.1 mg/kg, dissolved in vehicle (1:1:18 ethanol:cremophor:saline), i.p. 1 h after CHI. • Group 3: HU-910, 1.0 mg/kg, dissolved in vehicle (1:1:18 ethanol:cremophor:saline), i.p. 1 h after CHI. • Group 4: HU-910, 10.0 mg/kg, dissolved in vehicle (1:1:18 ethanol:cremophor:saline), i.p. 1 h after CHI.
In this study four groups of mice were subjected to CHI (n=9/group), after which the following agents were administered: • Group 1 (Control): Vehicle only (ethanol:cremophor:saline at ratio of 1:1:18), 1 h after CHI. • Group 2: HU-910, 10 mg/kg, dissolved in vehicle (1:1:18 ethanol:cremophor:saline), i.p. 1 h after CHI. • Group 3: Specific CB2 antagonist SR144528 (N-[(1S)-endo-1,3,3-trimethylbicyclo[2.2.1]heptan-2-yl]-5-(4-chloro-3-methylphenyl)-1-(4-methylbenzyl)pyrazole-3 carboxamide), (see M. Rinaldi-Carmona, et al. J. Pharmacol. Exp. Ther. 284 (1998) 644-650), 1 mg/kg, i.p. 1 h after CHI. • Group 4: Specific CB2 antagonist (SR144528, N-[(1S)-endo-1,3,3-trimethylbicyclo[2.2.1]heptan-2-yl]-5-(4-chloro-3-methylphenyl)-1-(4-methylbenzy)pyrazole-3 carboxamide), 1 mg/kg, i.p. 1 h after CHI and HU-910 10 mg/kg administered 10 min after administration of antagonist.
In this study four groups of mice were subjected to CHI (n=7-8/group), after which the following agents were administered: • Group 1 (Control): Vehicle only (Dimethyl Sulfoxide (DMSO): Tween 80: Saline at ratio of 1:1:18), i.p. 1 h after CHI. • Group 2: HU-910, 10 mg/kg, dissolved in Vehicle, i.p. 1 h after CHI. • Group 3: Specific CB2 antagonist/inverse agonist AM630 (6-Iodo-2-methyl-1-[2-(4-morpholinyl)ethyl]-1H-indol-3-yl](4-methoxyphenyl)methanone) (Ross et al. 1999)), dissolved in Vehicle, 1 mg/kg, i.p. 1 h after CHI and HU-910, dissolved in Vehicle, 10 mg/kg administered 10 min after administration of antagonist/inverse agonist. • Group 4: Specific CB2 antagonist/inverse agonist AM630 (6-Iodo-2-methyl-1-[2-(4-morpholinyl)ethyl]-1H-indol-3-yl](4-methoxyphenyl)methanone), dissolved in Vehicle, 1 mg/kg, i.p. 1 h after CHI

human CB1 receptor, sequence (P21554 whole entry): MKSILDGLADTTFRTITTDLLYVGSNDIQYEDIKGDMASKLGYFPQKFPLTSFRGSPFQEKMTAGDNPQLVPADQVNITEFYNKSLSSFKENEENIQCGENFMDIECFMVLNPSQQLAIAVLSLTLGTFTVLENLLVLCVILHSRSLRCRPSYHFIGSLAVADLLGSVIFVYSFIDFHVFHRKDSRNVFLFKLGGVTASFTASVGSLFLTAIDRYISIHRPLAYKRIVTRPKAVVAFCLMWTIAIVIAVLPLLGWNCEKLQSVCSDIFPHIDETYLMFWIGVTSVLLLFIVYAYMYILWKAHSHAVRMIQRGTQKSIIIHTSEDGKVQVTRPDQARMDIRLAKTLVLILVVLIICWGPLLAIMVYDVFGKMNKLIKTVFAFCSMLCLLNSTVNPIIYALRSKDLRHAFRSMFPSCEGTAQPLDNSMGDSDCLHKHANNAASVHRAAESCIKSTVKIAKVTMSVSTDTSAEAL

Row | SMILES | IC50 (human CB1 receptor) [nM] | Emax (human CB2 receptor) [%] | IC50 (human CB2 receptor) [nM] | beneficial effect on ΔNSS in the presence of AM630 (closed head injury (CHI); AM630 1 mg/kg i.p. 1 h after CHI, HU-910 10 mg/kg 10 min later, 1 h to 28 days) | extent of recovery ΔNSS=NSS(1 h)−NSS(t) (closed head injury (CHI); HU-910 10 mg/kg i.p. 1 h after CHI, days 5 and 7 post injury, vs vehicle or 0.1 and 1 mg/kg) | beneficial effect on ΔNSS in the presence of SR144528 (closed head injury (CHI); SR144528 1 mg/kg i.p. 1 h after CHI, HU-910 10 mg/kg 10 min later) | most effective dose (recovery, ΔNSS) (closed head injury (CHI)) [mg/kg] | recovery, Neurological Severity Score (ΔNSS) (closed head injury (CHI); HU-914 5 mg/kg i.p. 1 h after CHI, starting at 3 days post injury, vs vehicle or 10 and 20 mg/kg) | recovery ΔNSS in the presence of SR144528 (closed head injury (CHI); SR144528 1 mg/kg i.p. 1 h after CHI, HU-914 5 mg/kg 10 min later, 24 h to 28 day)
1 | CCCCCCC(C)(C)c1cc(OC)c(C2=C[C@H]3CC[C@]2(CO)C3(C)C)c(OC)c1 [HU-910, (1S,4R)-(2-(2,6-dimethoxy-4-(2-methyloctan-2-yl)phenyl)-7,7-dimethylbicyclo[2.2.1]hept-2-en-1-yl)methanol] | > 50000 | 105 ± 12 | 162 | reduced to a similar extent | significant greater recovery | reduced to a similar extent | 10 |  | 
2 | CCCCCCC(C)(C)c1cc(OC)c(C2=C[C@H]3CC[C@]2(C(=O)O)C3(C)C)c(OC)c1 [HU-914, (1S,4R)-2-(2,6-dimethoxy-4-(2-methyloctan-2-yl)phenyl)-7,7-dimethylbicyclo[2.2.1]hept-2-ene-1-carboxylic acid] | > 50000 | 82 ± 7 | 2290 |  |  |  | 5 | significant greater recovery | abolished and reduced to a similar extent as in the control group
